For the experiment, the system named is antiserum known to react with the original sequence (FMDV Type A10). Type of experiment: binding, rabbit.

Several values for one entry are separate records, joined by “and”; a condition that tells them apart may be missing. Equal values may be shown once. No end group written: not given here.

GDLGSI [GDLGSI]: the “Antibody-binding activity, percentage of the mean activity of the six parent sequences” value is 105 percentage and 118 percentage and 88 percentage and 98 percentage and 85 percentage and 106 percentage.
